Source: patent US4816444A, “Cell growth inhibitory substance” (priority 1987, dated 1989)
Values after ≈ are worked out from the molar mass of the structure shown.

How the values were obtained:
[1] = system: Human Melanoma Xenograph (LOX); test: NCI human melanoma xenograph to nude mouse (LOX); type: in vivo
Method: Unit dosage forms of dolastatin 10 were prepared according to Example 1 and were screened using accepted protocols of the National Cancer Institute. The preparation obtained a 17-67% cure rate at 3.25-26 μg/kg host body weight against NCI murine human melanoma xenograph.

[2] = system: Human Melanoma Xenograph (LOX); test: NCI human melanoma xenograph to nude mouse (LOX); type: in vivo; conditions: 52 μg/kg
[3] = system: Human Mammary Xenograph MX-1; test: Human mammary xenograph to nude mouse MX-1 (life extension); type: in vivo
P388 in vitro cell line = P388 in vitro cell line growth inhibition; type: cell-based, murine
B16 Melanoma [4] = test: NCI murine B16 melanoma, in vivo
Method: A unit dosage form of dolastatin 10, prepared according to Example 1, was challenged with B-16 murine melanoma and obtained a 42% to 138% life extension at 1.44 to 11.1 μg/Kg using the National Cancer Institute accepted protocol.

M5076 Ovary Sarcoma = test: M5076 ovary sarcoma, murine in vivo system
[5] = system: P388 lymphocytic leukemia; test: NCI murine P388 lymphocytic leukemia (PS system), in vivo
Method: Unit dosage forms of dolastatin 10 prepared according to selected compositions described in Example 1 were screened utilizing Protocol 1,200 described in Cancer Chemotherapy Reports, parts 3, Vol. 3, No. 2, September 1972, pp 9 et seq for lymphocytic leukemia P388. Dolastatin 10 provided a 69-102% life extension at 1-4 μg/Kg host body weight against the murine P388 lymphocytic leukemia.

[6] = system: L1210 Lymphocytic Leukemia; test: L1210 lymphocytic leukemia, murine in vivo system
MX-1 = MX-1 tumor regression; type: in vivo, human
B16 Melanoma [7] = conditions: 11 μg/kg; cited from earlier work

CC[C@H](C)[C@@H]([C@@H](CC(=O)N1CCC[C@H]1[C@H](OC)[C@@H](C)C(=O)N[C@@H](Cc1ccccc1)c1nccs1)OC)N(C)C(=O)[C@@H](NC(=O)[C@H](C(C)C)N(C)C)C(C)C [Dolastatin 10]
T/C ([1]; 3.25 μg/kg): 170 | T/C ([1]; 6.5 μg/kg): 206 | cures ([1]; 6.5 μg/kg): 16.6% | T/C ([1]; 13 μg/kg): 301 | cures ([1]; 13 μg/kg): 33.3% | T/C ([1]; 26 μg/kg): 301 | cures ([1]; 26 μg/kg): 50% | curative response / cure rate ([1]; 3.25-26 μg/kg): 17-67% | T/C [2]: toxic | cures [2]: 66.6% | T/C (life extension) ([3]; 6.25 μg/kg): 178 | T/C (life extension) ([3]; 13 μg/kg): 137 | T/C (life extension) ([3]; 26 μg/kg): toxic | T/C (life extension) ([3]; 52 μg/kg): toxic | ED50 (P388 in vitro cell line): 0.046 ng/mL (≈ 0.0586 nM) | T/C (B16 Melanoma [4]; 3.4 μg/kg): 171 | T/C (B16 Melanoma [4]; 4.0 μg/kg): 205 | T/C (B16 Melanoma [4]; 6.67 μg/kg): 182 | T/C (B16 Melanoma [4]; 11.11 μg/kg): 238 | T/C (M5076 Ovary Sarcoma; 3.25 μg/kg): 151 | T/C (M5076 Ovary Sarcoma; 6.5 μg/kg): 142 | T/C (M5076 Ovary Sarcoma; 13 μg/kg): 166 | T/C (M5076 Ovary Sarcoma; 24 μg/kg): toxic | T/C (M5076 Ovary Sarcoma; 26 μg/kg): toxic | T/C ([5]; 2 μg/kg): 199 | T/C ([5]; 4 μg/kg): 202 | T/C ([5]; 8 μg/kg): 161 | T/C ([5]; 13.5 μg/kg): 173 | T/C ([5]; 08-27 μg/kg): toxic | T/C ([6]; 1.63 μg/kg): 120 | T/C ([6]; 3.25 μg/kg): 139 | T/C ([6]; 6.5 μg/kg): 135 | T/C ([6]; 13 μg/kg): 152 | T/C ([6]; 26 μg/kg): toxic | MX-1 Tumor Regression, T/C (MX-1; 6.25 μg/kg): 69 | MX-1 Tumor Regression, T/C (MX-1; 13 μg/kg): 61 | MX-1 Tumor Regression, T/C (MX-1; 26 μg/kg): 50 | MX-1 Tumor Regression, T/C (MX-1; 52 μg/kg): 14

dolastatin 1
cure rate (B16 Melanoma [7]): 33%
